Data as given in patent publication US20130029956A1, “NEW METHOD” (ASTRAZENECA AB, priority 1997, published 2013).
Marks after values point to notes of the source that are not given here.

Assays:
Format in all cases: in vivo, human (children six months to eight years)
[1] = tested on: asthmatic children; assay: Phase III study of four dose regimens of budesonide nebulizing suspension and placebo in asthmatic children (Example 2); parameters: Nighttime Asthma Symptom Score: scale not given here; FEV1: unit not given here; conditions: for FEV1 / Evening PEF / Morning PEF / Daytime Asthma Symptom Score / Nighttime Asthma Symptom Score / Number of Days Use of Breakthrough Medication: adjusted mean change from baseline over 12 weeks; for proportion of patients discontinuing due to worsening asthma: placebo 26.3%; for total proportion of patients who were discontinued: placebo 39%
Method: The objectives of the study were to compare the relative efficacy and safety of budesonide in a nebulizing suspension (0.25 mg administered once a day (QD), 0.25 mg administered twice per day (BID), 0.5 mg BID or 1.0 mg QD) in pediatric asthmatic patients aged six months to eight years.
(§1) This was a multicenter, randomized double-blind, placebo-controlled, parallel-group study.
Patients were mild to moderate asthmatic children aged six months to eight years of age with a diagnosis of asthma as defined by the National Institutes of Health of the U.S. Department of Health and Human Services, including:
(a) exacerbations of cough and/or wheezing on a frequent basis, including nocturnal asthma, with infrequent severe exacerbations during the last six months; (b) daily use of at least one chronic asthma medication (which could have been an inhaled GCS) with periodic use of breakthrough medication for at least three months prior to Visit 1; and (c) basal FEV1 of […] of predicted and reversibility of […] at 15±5 minutes after a standard dose of inhaled bronchodilator for patients capable of performing consistent PFTs. […]
Primary efficacy variables were mean changes from baseline in daytime and nighttime asthma symptom scores over the 12-week treatment phase. The symptom scores were obtained as in Example 1.
Secondary efficacy variables were: (a) the number of days breakthrough (bronchodilator) medication was used; (b) spirometry test variables, including FEV1, FEF25-75, and FVC performed at clinic visits in the subset of patients capable of performing spirometry testing; (c) PEF measured daily in the morning and evening in the subset of patients capable of performing PEFs; and (d) proportion of patient discontinuations from the study.
(§2) Safety variables were: (a) reported adverse events that could be due to the drug; (b) morning basal and post-ACTH-simulation effects on plasma cortisol levels (HPA-axis function) in a subset of patients; and (c) changes in physical examinations, vital signs and clinical laboratory tests, including oropharyngeal and nasal fungal cultures.
(§3) Analysis of variance was used to compare differences between treatment groups for all efficacy variables, with the exception of patient discontinuations from the study, which was analyzed using Fisher's exact test. Analysis of variance was also used for morning basal and post-ACTH-simulation effects on plasma cortisol levels. Descriptive statistics were used to present all other safety data.
A total of 471 patients were evaluated for efficacy (all patients treated). Data are expressed as the adjusted mean change from baseline over the 12-week treatment phase, all patients treated, last value carried forward (*p≦0.050; **p≦0.010 and ***p≦0.001, versus placebo; “n” is the number of patients).

[2] = tested on: asthmatic children; assay: Phase III study of three dose levels of once-a-day budesonide nebulizing suspension and placebo in asthmatic children (Example 1); conditions: for Asthma scores: Daytime / Asthma scores: Nighttime: 0-3 score; for proportion of patients discontinuing due to worsening asthma: placebo 23%; for total proportion of patients who were discontinued: placebo 28%
Method: The objectives of the study were to compare the relative efficacy and safety of a nebulizing suspension of budesonide (containing 0.25 mg, 0.5 mg, or 1.0 mg of budesonide per dose), administered once a day, in pediatric asthmatic patients aged six months to eight years.
as §1
Patients were asthmatic children who had not been treated with steroids in the 30 days prior to initiation of the study treatment.
Budesonide was administered once per day as a nebulized suspension, at 0.25 mg, 0.5 mg, or 1.0 mg per administration, via a Pari LC-Jet Plus® nebulizer connected to a Pari Master® compressor (Pari Respiratory Equipment, Inc., Richmond, Va.) with a face mask or a mouth piece. The placebo was the solvent used for the budesonide suspension (0.1 mg disodium edetate, 8.5 mg NaCl, 0.2 mg polysorbate, 0.28 mg anhydrous citric acid, and 0.5 mg sodium citrate per 1 ml water) but without budesonide.
Primary efficacy variables were mean changes from baseline in daytime and nighttime asthma symptom scores over the 12 week treatment phase. The symptom scores are based on the subjective evaluation by the patients or their parents based on a 0-3 rating system in which 0=no symptoms, 1=mild symptoms, 2=moderate symptoms, and 3=severe symptoms.
Secondary efficacy variables were: (a) patient outcomes, including the proportion of patients who were discontinued from the study for any reason and the proportion of patients who were discontinued from this study due to worsening asthma; (b) the number of days breakthrough (bronchodilator) medication was used; (c) spirometry test variables, including FEV1, FEF25-75 (forced expiratory flow during the middle half of the forced vital capacity in liters per second) and FVC (forced vital capacity in liters), performed at clinic visits in the subset of patients capable of performing spirometry testing; (d) PEF (peak expiratory flow in liters per minute) measured daily in the morning and evening in the subset of patients capable of performing PEF testing; (e) changes in health status measurements, including the Modified Functional Status II Scale Child Health Status Scale and the RAND General Health Index; and (f) differences in asthma-related health care utilization and indirect health care costs.
(§4) Safety variables were: (a) reported adverse effects that could be due to the drug; (b) morning basal and post-ACTH-simulation effects on plasma cortisol levels (HPA-axis function); and (c) changes in physical examinations, vital signs, and clinical laboratory tests, including oropharyngeal and nasal fungal cultures.
(§5) Analysis of variance was used to compare differences between treatment groups for all efficacy variables, with the exception of patient outcomes, which were analyzed using Fisher's exact test. Analysis of variance was also used for morning basal and post-ACTH-simulation effects on plasma cortisol levels. Descriptive statistics were used to present all other safety data.
Results of nighttime and daytime asthma symptom scores, and the number of days of use of breakthrough medication are presented in Table 1. Data are expressed as the adjusted mean change from baseline over the 12-week treatment phase, all patients treated, last value carried forward (*p≦0.050, **p≦0.010, and ***p≦0.001 versus placebo (PBO); “n” is number of patients). Thus improvements are indicated by negative values of these variables.

[3] = tested on: plasma cortisol levels (HPA-axis function); assay: Basal and post-ACTH-stimulated plasma cortisol levels, Example 2; conditions: 0.25 mg QD, 0.25 mg BID, 0.5 mg BID, 1.0 mg QD; baseline to week 12 versus placebo
Description: as §2, §3

[4] = tested on: plasma cortisol levels (HPA-axis function); assay: Basal and post-ACTH-stimulated plasma cortisol levels, Example 1; conditions: 0.25, 0.5, 1.0 mg once a day; baseline to week 12 versus placebo
Method: as §4, §5
ACTH production is stimulated by injection (intravenous for young children and intramuscular for infants) of corticotropin one hour before morning blood sampling.

[5] = 0.25 mg BID, n = 34, no unit in table
[6] = 0.5 mg BID, n = 29, no unit in table
[7] = 1.0 mg QD, n = 34, no unit in table
[8] = 0.25 mg once a day nebulized, adjusted mean change from baseline over 12 weeks, n = 91
[9] = 0.5 mg once a day nebulized, adjusted mean change from baseline over 12 weeks, n = 82
[10] = 1.0 mg once a day nebulized, adjusted mean change from baseline over 12 weeks, n = 93

SMILES: CCCC1O[C@@H]2C[C@H]3[C@@H]4CCC5=CC(=O)C=C[C@]5(C)[C@H]4[C@@H](O)C[C@]3(C)[C@]2(C(=O)CO)O1 (stereo partly drawn) [Budesonide, budesonide]
- FEV1 ([1]; 0.25 mg BID, n = 33, no unit in table): 0.03
- Evening PEF [1, 5]: 19.2* ^
- Morning PEF [1, 5]: 23.0**
- Daytime Asthma Symptom Score ([1]; 0.25 mg BID, n = 97): −0.40*
- Nighttime Asthma Symptom Score ([1]; 0.25 mg BID, n = 97): −0.49***
- Number of Days Use of Breakthrough Medication ([1]; 0.25 mg BID, n = 97): −5.22*** days
- proportion of patients discontinuing due to worsening asthma ([1]; 0.25 mg BID, p=0.029): 13.1%
- total proportion of patients who were discontinued ([1]; 0.25 mg BID): 21%
- FEV1 ([1]; 0.25 mg QD, n = 31, no unit in table): 0.07
- Evening PEF ([1]; 0.25 mg QD, n = 32, no unit in table): 16.8*
- Morning PEF ([1]; 0.25 mg QD, n = 32, no unit in table (baseline PEF in L/min)): 10.9
- Daytime Asthma Symptom Score ([1]; 0.25 mg QD, n = 92): −0.28
- Nighttime Asthma Symptom Score ([1]; 0.25 mg QD, n = 93): −0.28
- Number of Days Use of Breakthrough Medication ([1]; 0.25 mg QD, n = 93): −4.39* days
- proportion of patients discontinuing due to worsening asthma ([1]; 0.25 mg QD): 16.0%
- total proportion of patients who were discontinued ([1]; 0.25 mg QD): 21%
- Evening PEF [1, 6]: 21.0**
- FEV1 [1, 6]: 0.17*
- Morning PEF [1, 6]: 24.8**
- Daytime Asthma Symptom Score ([1]; 0.5 mg BID, n = 96): −0.46**
- Nighttime Asthma Symptom Score ([1]; 0.5 mg BID, n = 96): −0.42**
- Number of Days Use of Breakthrough Medication ([1]; 0.5 mg BID, n = 96): −4.92** days
- proportion of patients discontinuing due to worsening asthma ([1]; 0.5 mg BID): 15.3%
- total proportion of patients who were discontinued ([1]; 0.5 mg BID): 19%
- Evening PEF [1, 7]: 14.1
- FEV1 [1, 7]: 0.11
- Morning PEF [1, 7]: 17.1*
- Daytime Asthma Symptom Score ([1]; 1.0 mg QD, n = 93): −0.37*
- Nighttime Asthma Symptom Score ([1]; 1.0 mg QD, n = 93): −0.40**
- Number of Days Use of Breakthrough Medication ([1]; 1.0 mg QD, n = 93): −4.38* days
- proportion of patients discontinuing due to worsening asthma ([1]; 1.0 mg QD): 21.1%
- total proportion of patients who were discontinued ([1]; 1.0 mg QD): 31%
- number of patients with clinically significant changes in nasal or oral fungal cultures between treatment groups ([1]; four regimens, 12 weeks): no apparent differences
- type, incidence or severity of adverse events compared to placebo ([1]; in vivo): no clinically relevant differences
- vital signs or physical examination outcomes between treatment groups ([1]; in vivo): no clinically relevant differences
- Asthma scores: Daytime [2, 8]: −0.57**
- Asthma scores: Nighttime [2, 8]: −0.49***
- FEV1 ([2]; 0.25 mg once a day, adjusted mean change from baseline over 12 weeks, n = 29): -0.01 L
- Morning PEF ([2]; 0.25 mg once a day, adjusted mean change from baseline over 12 weeks, n = 44): 14.4 L/min
- Days of use of bronchodilator ([2]; 0.25 mg once a day, adjusted mean change from baseline over 12 weeks, n = 91): −6.26* days
- proportion of patients discontinuing due to worsening asthma ([2]; 0.25 mg once a day): 14%
- total proportion of patients who were discontinued ([2]; 0.25 mg once a day): 19%
- Asthma scores: Daytime [2, 9]: −0.46*
- Asthma scores: Nighttime [2, 9]: −0.42**
- FEV1(L) ([2]; 0.5 mg once a day, adjusted mean change from baseline over 12 weeks, n = 28): 0.03* L
- Morning PEF ([2]; 0.5 mg once a day, adjusted mean change from baseline over 12 weeks, n = 41): 6.5 L/min
- Days of use of bronchodilator ([2]; 0.5 mg once a day, adjusted mean change from baseline over 12 weeks, n = 82): −5.31* days
- proportion of patients discontinuing due to worsening asthma ([2]; 0.5 mg once a day): 17%
- total proportion of patients who were discontinued ([2]; 0.5 mg once a day): 24%
- Asthma scores: Daytime [2, 10]: −0.50*
- Asthma scores: Nighttime [2, 10]: −0.42**
- FEV1(L) ([2]; 1.0 mg once a day, adjusted mean change from baseline over 12 weeks, n = 33): 0.03* L
- Morning PEF ([2]; 1.0 mg once a day, adjusted mean change from baseline over 12 weeks, n = 55): 10.9 L/min
- Days of use of bronchodilator ([2]; 1.0 mg once a day, adjusted mean change from baseline over 12 weeks, n = 93): −5.98* days
- proportion of patients discontinuing due to worsening asthma ([2]; 1.0 mg once a day): 13%
- total proportion of patients who were discontinued ([2]; 1.0 mg once a day, p=0.020): 14%
- vital signs or physical examination differences between treatment groups ([2]; in vivo): no clinically relevant differences
- clinically significant changes in nasal or oral fungal cultures between treatment groups ([2]; three doses once a day, 12 weeks): no clinically relevant differences
- HPA-axis suppression (basal and post-ACTH-stimulated plasma cortisol) [3]: no evidence of HPA-axis suppression
- HPA-axis suppression (basal and post-ACTH-stimulated plasma cortisol) [4]: no evidence of HPA-axis suppression
